{
  "source": "patent US6613889B2",
  "about": "“Method for preparing salts of polyene macrolide esters” (BioSource Pharm, Inc., priority 2001, dated 2003)",
  "key": {"pH of a 1% solution": {"assay": "pH of a 1% solution", "format": "physicochemical", "experimental": "A mixture of amphotericin B methyl ester and its p-chlorobenzilidine derivative (1.029 g) was dissolved in 40 ml o THF/H2O (4/1) and 0.90 ml of 1.0 M acetic acid solution was added dropwise. Water (40 ml) was added and THF was removed as an azeotrope at reduced pressure and 40° C. The resulting aqueous solution was passed through a column of Amberlite® XAD-2, then freeze-dried to afford 0.654 g of the acetate salt: E^1%1 cm=1100 at 382 nm in MeOH; a 1% solution had pH 5.30."}, "solubility in water": {"assay": "solubility in water", "format": "physicochemical", "conditions": "freeze-dried yellow powder", "description": "In order to facilitate removal of the aldehyde protective group of the Schiff base and to form the salt of the liberated free base ester, the Schiff base is stirred in water overnight, centrifuged and the insoluble product dried by lyophilization. HPLC and 300 Mhz NMR indicate that the product contains some p-chlorobenzaldehyde and is usually about a 50/50 mixture of the desired methyl ester and the corresponding Schiff base. The mixture is stirred in ethyl acetate to remove the excess aldehyde. The product is then dissolved in a solvent which is inert to the materials, is miscible with water, and can be removed from an aqueous solution as an azeotrope. Tetrahydrofuran or acetonitrile fulfil these requirements. […] A solution of amphotericin B methyl ester Schiff base/free base in tetrahydrofuran is diluted with water to approximately 75% THF but maintained in solution. To this solution is added dilute hydrochloric acid until the appropriate pH is reached. This causes the hydrolysis of the Schiff base and forms the hydochloride salt of amphotericin B methyl ester. The tetrahydrofuran is then removed as an azeotrope with water to obtain an aqueous solution of the AME.HCl and some insoluble material containing part of the aldehyde. The residual aldehyde in the aqueous solution of the AME.HCl is an impurity which can not be readily removed by filtration, centrifuging, or solvent extraction. […]"}, "[1]": {"conditions": "at pH levels less than 4.0; cited from earlier work"}},
  "data": [
    {"smiles": "CC(=O)O.COC(=O)C1C(O)CC2(O)CC(O)CC(O)C(O)CCC(O)CC(O)CC(=O)OC(C)C(C)C(O)C(C)C=CC=CC=CC=CC=CC=CC=CC(OC3OC(C)C(O)C(N)C3O)CC1O2", "note": "(stereo not drawn) [Amphotericin B Methyl Ester Acetate]", "values": [
      {"measurement": "pH of solution", "setting": "pH of a 1% solution", "value": 5.30}
    ]},
    {"smiles": "COC(=O)[C@H]1[C@@H]2C[C@@H](O[C@@H]3O[C@H](C)[C@@H](O)[C@H](N)[C@@H]3O)/C=C/C=C/C=C/C=C/C=C/C=C/C=C/[C@H](C)[C@@H](O)[C@@H](C)[C@H](C)OC(=O)C[C@H](O)C[C@H](O)CC[C@@H](O)[C@H](O)C[C@H](O)C[C@](O)(C[C@@H]1O)O2.Cl", "note": "[AME.HCl, amphotericin B methyl ester hydrochloride]", "values": [
      {"measurement": "solubility in water", "setting": "solubility in water", "value": "highly soluble"}
    ]},
    {"smiles": "COC(=O)[C@H]1[C@@H]2C[C@@H](O[C@@H]3O[C@H](C)[C@@H](O)[C@H](N)[C@@H]3O)/C=C/C=C/C=C/C=C/C=C/C=C/C=C/[C@H](C)[C@@H](O)[C@@H](C)[C@H](C)OC(=O)C[C@H](O)C[C@H](O)CC[C@@H](O)[C@H](O)C[C@H](O)C[C@](O)(C[C@@H]1O)O2", "note": "[AME, amphotericin B methyl ester]", "values": [
      {"measurement": "stability", "setting": "[1]", "value": "very unstable"}
    ]}
  ]
}
